Experiment [1] has as its target T1, Neutrophil elastase (Homo sapiens, UniProt P08246).
T1 sequence (P08246 whole entry): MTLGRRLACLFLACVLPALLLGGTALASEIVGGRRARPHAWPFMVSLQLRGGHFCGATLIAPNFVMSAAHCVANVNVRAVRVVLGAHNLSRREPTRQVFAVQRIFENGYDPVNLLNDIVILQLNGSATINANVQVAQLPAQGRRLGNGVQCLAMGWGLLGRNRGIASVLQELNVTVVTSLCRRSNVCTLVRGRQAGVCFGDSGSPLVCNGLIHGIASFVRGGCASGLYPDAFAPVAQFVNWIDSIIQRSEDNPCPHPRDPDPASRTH
The experiment can be described thus: Inhibition of neutrophil elastase in human plasma using MeOSuc-Ala-Ala-Pro-Val-AMC as substrate by fluorescence assay.

The target of experiment [2] is T1, Neutrophil elastase. In words: Inhibition of human neutrophil elastase using MeOSuc-Ala-Ala-Pro-Val-AMC as substrate after 15 mins by fluorescence assay.

Usually EC50 stands for the concentration at which the effect is half-maximal. A high value points to a less potent agent. Broadly, the IC50 is the concentration that inhibits the measured activity by half. Compound `CS(=O)(=O)c1cc(C#N)ccc1C1C2=C(CCC2=O)N(c2cccc(C(F)F)c2)C(=O)N1C(=O)N1CC1` (centres undefined) displayed a half-maximal effective concentration (EC50) at Neutrophil elastase [1] below 1 nM. Besides, on Neutrophil elastase [2], the IC50 was below 1 nM.

Consider `N#Cc1ccc(C2C3=C(CCC3=O)N(c3cccc(C(F)(F)F)c3)C(=O)N2CC(=O)N2CCC2)cc1` (centres undefined), for which a half-maximal response at Neutrophil elastase [1] (EC50) required 4 nM. The compound also had a concentration for half-maximal inhibition (IC50) at Neutrophil elastase [2] of 3.7 nM.
